Toxic doses and inconclusive results are not listed. How the source made its calls: active means survival T/C of 150% or more; inactive means T/C below 125% in these data.
Tested on: CD2F1 mice, L1210 leukemia ip, survival T/C
Test: NCI In Vivo Anticancer Drug Screen. Data for tumor model L1210 Leukemia (intraperitoneal) in CD2F1 (CDF1) mice
Settings: higher = longer survival
In short: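 Antitumor effect is scored in animals hosting a serially transplanted tumor. Values compare compound-dosed animals against vehicle-only controls as a simple quotient.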

[1] = endpoint: mean survival time, dose: 100.0 mg/kg/injection, schedule: Q01DX009 (ip), vehicle: saline with Tween-80
[2] = endpoint: mean survival time, dose: 200.0 mg/kg/injection, schedule: Q01DX009 (ip), vehicle: saline with Tween-80
[3] = endpoint: mean survival time, dose: 400.0 mg/kg/injection, schedule: Q01DX009 (ip), vehicle: saline with Tween-80
[4] = endpoint: mean survival time, dose: 100.0 mg/kg/injection, schedule: Q01DX001 (ip), vehicle: saline sonified
[5] = endpoint: mean survival time, dose: 200.0 mg/kg/injection, schedule: Q01DX001 (ip), vehicle: saline sonified
[6] = endpoint: mean survival time, dose: 100.0 mg/kg/injection, schedule: Q04DX003 (ip), vehicle: saline with Tween-80
[7] = endpoint: mean survival time, dose: 200.0 mg/kg/injection, schedule: Q04DX003 (ip), vehicle: saline with Tween-80
[8] = endpoint: mean survival time, dose: 400.0 mg/kg/injection, schedule: Q04DX003 (ip), vehicle: saline with Tween-80
[9] = endpoint: mean survival time, dose: 100.0 mg/kg/injection, schedule: Q01DX001 (ip), vehicle: saline
[10] = endpoint: mean survival time, dose: 200.0 mg/kg/injection, schedule: Q01DX001 (ip), vehicle: saline
[11] = endpoint: mean survival time, dose: 400.0 mg/kg/injection, schedule: Q01DX001 (ip), vehicle: saline
[12] = endpoint: mean survival time, dose: 100.0 mg/kg/injection, schedule: Q01DX009 (ip), vehicle: saline
[13] = endpoint: mean survival time, dose: 200.0 mg/kg/injection, schedule: Q01DX009 (ip), vehicle: saline
[14] = endpoint: mean survival time, dose: 400.0 mg/kg/injection, schedule: Q01DX009 (ip), vehicle: saline
[15] = endpoint: mean survival time, dose: 100.0 mg/kg/injection, schedule: Q01DX001 (ip), vehicle: saline with Tween-80
[16] = endpoint: mean survival time, dose: 200.0 mg/kg/injection, schedule: Q01DX001 (ip), vehicle: saline with Tween-80
[17] = endpoint: mean survival time, dose: 400.0 mg/kg/injection, schedule: Q01DX001 (ip), vehicle: saline with Tween-80

Measured: T/C

N#Cc1ccc2cn[nH]c2c1
inactive: [1] 98 % of control | [2] 96 % of control | [3] 92 % of control

CCN(CC)CCN1C(=O)c2cccc3cccc(c23)C1=O
inactive: endpoint: mean survival time, dose: 25.0 mg/kg/injection, schedule: Q04DX003 (ip), vehicle: saline 102 % of control | endpoint: mean survival time, dose: 50.0 mg/kg/injection, schedule: Q04DX003 (ip), vehicle: saline 98 % of control | endpoint: mean survival time, dose: 100.0 mg/kg/injection, schedule: Q04DX003 (ip), vehicle: saline 102 % of control

c1ccc(CC23CCCCC2N3)cc1 (centres undefined)
inactive: [4] 96 % of control | [5] 94 % of control

CCCCCCCCCCCCCCCOc1ccc2ccccc2c1
inactive: endpoint: mean survival time, dose: 100.0 mg/kg/injection, schedule: Q01DX001 (ip), vehicle: Klucel (hydroxypropylcellulose) (HPC) 102 % of control | endpoint: mean survival time, dose: 200.0 mg/kg/injection, schedule: Q01DX001 (ip), vehicle: Klucel (hydroxypropylcellulose) (HPC) 94 % of control | endpoint: mean survival time, dose: 400.0 mg/kg/injection, schedule: Q01DX001 (ip), vehicle: Klucel (hydroxypropylcellulose) (HPC) 90 % of control

Cc1cccc(Cl)c1NC(=O)CCCl
inactive: [6] 97 % of control | [7] 106 % of control | [8] 98 % of control

CCCCOC(=O)c1ccc2c(ccc[n+]2C)c1
inactive: endpoint: mean survival time, dose: 37.5 mg/kg/injection, schedule: Q01DX009 (ip), vehicle: saline with Tween-80 97 % of control | endpoint: mean survival time, dose: 75.0 mg/kg/injection, schedule: Q01DX009 (ip), vehicle: saline with Tween-80 103 % of control | endpoint: mean survival time, dose: 150.0 mg/kg/injection, schedule: Q01DX009 (ip), vehicle: saline with Tween-80 107 % of control

COc1ccc(-c2[nH]c(=S)[nH]c(=O)c2CCO)cc1
inactive: [1] 93 % of control | [6] 90 % of control | [7] 88 % of control | [3] 92 % of control | [8] 95 % of control

CC(=O)Nc1nc(C)c(S(=O)(=O)O)s1
inactive: endpoint: mean survival time, dose: 75.0 mg/kg/injection, schedule: Q01DX001 (ip), vehicle: saline 101 % of control | endpoint: mean survival time, dose: 150.0 mg/kg/injection, schedule: Q01DX001 (ip), vehicle: saline 93 % of control | endpoint: mean survival time, dose: 300.0 mg/kg/injection, schedule: Q01DX001 (ip), vehicle: saline 90 % of control

CCCC1([N+](=O)[O-])c2ccccc2-c2ccc([N+](=O)[O-])cc21 (centres undefined)
inactive: [9] 98 % of control | [10] 96 % of control | [11] 92 % of control

COCCN1CCC(C)(CO)C1 (centres undefined)
inactive: [12] 94 % of control | [13] 94 % of control | [14] 100 % of control

N#CC(CC(=O)OCc1ccccc1)NC(=O)OCc1ccccc1 (centres undefined)
inactive: [7] 86 % of control | [8] 94 % of control

CCN1CCCSC1=S
inactive: endpoint: mean survival time, dose: 75.0 mg/kg/injection, schedule: Q01DX001 (ip), vehicle: other 98 % of control | endpoint: mean survival time, dose: 150.0 mg/kg/injection, schedule: Q01DX001 (ip), vehicle: other 103 % of control

NC(=O)n1ccnc1
inactive: endpoint: mean survival time, dose: 50.0 mg/kg/injection, schedule: Q01DX001 (ip), vehicle: saline 96 % of control | [9] 98 % of control | [10] 108 % of control

C(=C(\c1ccccc1)N1CCOCC1)/c1ccccc1
inactive: [4] 111 % of control | endpoint: mean survival time, dose: 100.0 mg/kg/injection, schedule: Q04DX002 (ip), vehicle: saline with Tween-80 93 % of control | [5] 104 % of control | endpoint: mean survival time, dose: 200.0 mg/kg/injection, schedule: Q04DX002 (ip), vehicle: saline with Tween-80 96 % of control | endpoint: mean survival time, dose: 400.0 mg/kg/injection, schedule: Q01DX001 (ip), vehicle: saline sonified 102 % of control | endpoint: mean survival time, dose: 400.0 mg/kg/injection, schedule: Q04DX002 (ip), vehicle: saline with Tween-80 96 % of control

C[N+](C)(Cc1ccc(F)cc1)C1c2ccccc2-c2ccccc21
inactive: endpoint: mean survival time, dose: 1.56 mg/kg/injection, schedule: Q04DX003 (ip), vehicle: saline 97 % of control | endpoint: mean survival time, dose: 3.13 mg/kg/injection, schedule: Q04DX003 (ip), vehicle: saline 97 % of control | endpoint: mean survival time, dose: 6.25 mg/kg/injection, schedule: Q04DX003 (ip), vehicle: saline 98 % of control

Cc1c(C)c(C)c([N+](=O)[O-])c([N+](=O)[O-])c1C
inactive: endpoint: mean survival time, dose: 50.0 mg/kg/injection, schedule: Q01DX005 (ip), vehicle: saline with Tween-80 101 % of control | endpoint: mean survival time, dose: 100.0 mg/kg/injection, schedule: Q01DX005 (ip), vehicle: saline with Tween-80 101 % of control | endpoint: mean survival time, dose: 200.0 mg/kg/injection, schedule: Q01DX005 (ip), vehicle: saline with Tween-80 101 % of control

O=c1[nH]cnc2c1cnn2CN1CCOCC1
inactive: endpoint: median survival time, dose: 25.0 mg/kg/injection, schedule: Q01DX009 (ip), vehicle: Klucel (hydroxypropylcellulose) (HPC) 106 % of control | endpoint: median survival time, dose: 50.0 mg/kg/injection, schedule: Q01DX009 (ip), vehicle: Klucel (hydroxypropylcellulose) (HPC) 106 % of control | endpoint: median survival time, dose: 100.0 mg/kg/injection, schedule: Q01DX009 (ip), vehicle: Klucel (hydroxypropylcellulose) (HPC) 110 % of control | endpoint: median survival time, dose: 200.0 mg/kg/injection, schedule: Q01DX009 (ip), vehicle: Klucel (hydroxypropylcellulose) (HPC) 114 % of control

c1cnc2c(OB(C3CCCCC3)C3CCCCC3)cccc2c1
inactive: [15] 105 % of control | [16] 91 % of control | [17] 91 % of control

CCCNC(=O)OCC#CC#CCOC(=O)NCCC
inactive: endpoint: mean survival time, dose: 100.0 mg/kg/injection, schedule: Q04DX003 (ip), vehicle: Klucel (hydroxypropylcellulose) (HPC) 94 % of control | endpoint: mean survival time, dose: 200.0 mg/kg/injection, schedule: Q04DX003 (ip), vehicle: Klucel (hydroxypropylcellulose) (HPC) 98 % of control | endpoint: mean survival time, dose: 400.0 mg/kg/injection, schedule: Q04DX003 (ip), vehicle: Klucel (hydroxypropylcellulose) (HPC) 96 % of control

OCCNc1ccc(I)cc1
inactive: [6] 105 % of control | [7] 112 % of control | [8] 103 % of control

Cc1cc(CSc2ssc(=S)c2-c2ccccc2)c(CSc2ssc(=S)c2-c2ccccc2)cc1C
inactive: [15] 98 % of control | [16] 98 % of control | [17] 97 % of control

CC(=O)NC1CCC(C(C)C)CC1 (centres undefined)
inactive: endpoint: mean survival time, dose: 50.0 mg/kg/injection, schedule: Q01DX001 (ip), vehicle: saline with Tween-80 102 % of control

CC(NC=O)c1c[nH]c(=O)[nH]c1=O (centres undefined)
inactive: [1] 100 % of control | [2] 97 % of control | [3] 97 % of control

Cc1c(NCO)c(=O)n(-c2ccccc2)n1C
inactive: [12] 94 % of control | [13] 89 % of control | [14] 105 % of control

CCOC(=O)/C(C)=C/C(O)CO (centres undefined)
inactive: endpoint: mean survival time, dose: 100.0 mg/kg/injection, schedule: Q01DX009 (ip), vehicle: saline sonified 96 % of control | [6] 105 % of control | endpoint: mean survival time, dose: 200.0 mg/kg/injection, schedule: Q01DX009 (ip), vehicle: saline sonified 95 % of control | [7] 98 % of control | [8] 96 % of control

C=CCc1ccc(OC(=O)Nc2ccc(S(=O)(=O)N(CCC)CCC)cc2)c(OC)c1
inactive: [9] 94 % of control | [10] 94 % of control | [11] 94 % of control

COc1cc(CCl)ccc1OCc1ccccc1
inactive: endpoint: mean survival time, dose: 100.0 mg/kg/injection, schedule: Q04DX003 (ip), vehicle: other 98 % of control | endpoint: mean survival time, dose: 200.0 mg/kg/injection, schedule: Q04DX003 (ip), vehicle: other 98 % of control | endpoint: mean survival time, dose: 400.0 mg/kg/injection, schedule: Q04DX003 (ip), vehicle: other 109 % of control

CN(C)P1(=S)NCC(C(C)(C)C)CO1 (centres undefined)
inactive: endpoint: mean survival time, dose: 15.63 mg/kg/injection, schedule: Q01DX001 (ip), vehicle: distilled water + Tween-80 103 % of control | endpoint: mean survival time, dose: 31.25 mg/kg/injection, schedule: Q01DX001 (ip), vehicle: distilled water + Tween-80 103 % of control | endpoint: mean survival time, dose: 62.5 mg/kg/injection, schedule: Q01DX001 (ip), vehicle: distilled water + Tween-80 103 % of control | endpoint: mean survival time, dose: 125.0 mg/kg/injection, schedule: Q01DX001 (ip), vehicle: distilled water + Tween-80 97 % of control | endpoint: mean survival time, dose: 250.0 mg/kg/injection, schedule: Q01DX001 (ip), vehicle: distilled water + Tween-80 92 % of control
